According to patent US20020137929A1, “1 - (3-heterocyclylphenyl) isothiourea, -isourea, -guanidine and -amidine herbicidal agents” (Intellectual Property Department, BASF Aktiengesellschaft, priority 1998, published 2002):

Assays:
[1] = test system: AMBEL (Ragweed, Common); assay: Postemergence herbicidal evaluation; type: in vivo, Ambrosia artemisifolia; conditions: postemergence
How it was run: (§1)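 ~2-wk seedlings; postemergence spray, 40 psi; vehicle 1:1 acetone:water + 0.5% Tween 20; rate ≈0.0156–0.500 kg/ha; greenhouse hold; scored 4–5 wk after treatment, 0–9 scale vs control; repeat tests averaged.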

[2] = test system: IPOHE (Morningglory, Ivyleaf); assay: Postemergence herbicidal evaluation; type: in vivo, Ipomoea hederacea; conditions: postemergence
How it was run: as §1

[3] = test system: GLXMAW (Soybean, Williams); assay: Postemergence herbicidal evaluation; type: in vivo, Glycine max, (L.) Merr. cv Williams; conditions: postemergence
How it was run: as §1

[4] = test system: ZEAMX (Corn, Field); assay: Postemergence herbicidal evaluation; type: in vivo, Zea mays; conditions: postemergence
How it was run: as §1

[5] = test system: ABUTH (Velvetleaf); assay: Preemergence herbicidal evaluation; type: in vivo, Abutilon theophrasti; conditions: rated 4-5 weeks after treatment
How it was run: (§2)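 Visual 0-9 rating vs control (stand, vigor, malformation, size, chlorosis, overall appearance), scored 4-5 wk after spraying. Seeded soil cups were treated preemergence with compound in aqueous acetone, ~0.0156-0.500 kg/ha equivalent.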

[6] = test system: AMBEL (Ragweed, Common); assay: Preemergence herbicidal evaluation; type: in vivo, Ambrosia artemisifolia; conditions: rated 4-5 weeks after treatment
How it was run: as §2

[7] = test system: CASOB (Sicklepod); assay: Preemergence herbicidal evaluation; type: in vivo, Cassia obtusifolia; conditions: rated 4-5 weeks after treatment
How it was run: as §2

[8] = test system: GALAP (Galium); assay: Preemergence herbicidal evaluation; type: in vivo, Galium aparine; conditions: rated 4-5 weeks after treatment
How it was run: as §2

[9] = test system: ECHCG (Barnyardgrass); assay: Preemergence herbicidal evaluation; type: in vivo, Echinochloa crus-galli; conditions: rated 4-5 weeks after treatment
How it was run: as §2

[10] = test system: SETVI (Foxtail, Green); assay: Preemergence herbicidal evaluation; type: in vivo, Setaria viridis; conditions: rated 4-5 weeks after treatment
How it was run: as §2

[11] = test system: GLXMAW (Soybean, Williams); assay: Preemergence herbicidal evaluation; type: in vivo, Glycine max, (L.) Merr. cv Williams; conditions: rated 4-5 weeks after treatment
How it was run: as §2

[12] = test system: CYPSE (Flatsedge); assay: Preemergence weed control under flooded paddy conditions; type: in vivo, Cyperus serotinus; conditions: rated 3-4 weeks after treatment
How it was run: (§3)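 First, seeds or propagules go into the top 0.5 cm of silt loam; next, water is held 1.5 to 3 cm over the soil; then compound (50/50 acetone/water) is pipetted into it at about 0.0313 to 0.500 kg/ha; finally plants are rated visually 0-9 after three to four weeks.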

[13] = test system: SAGPY (Arrowhead (Pygmaea)); assay: as above; type: in vivo, Sagittaria pygmaea; conditions: rated 3-4 weeks after treatment
How it was run: as §3

[14] = test system: ECHORC (Watergrass (Calif.)); assay: Postemergence weed control under flooded paddy conditions; type: in vivo, Echinochloa oryzoides; conditions: postemergence weeds, rated 3 to 4 weeks after treatment
How it was run: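 Herbicidal effect is judged by eye on a 0–9 scale versus control, 3–4 weeks after dosing. Dosing is into flood water kept 1.5–3 cm over the soil, at about 0.0313–0.500 kg/ha in aqueous/acetone 50/50 v/v, on 3–5 cm weeds and 1.5–2.5-leaf rice seedlings.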

C=CCN1C(=O)C(CC(=O)OC(C)C)SC1=Nc1cc(-n2c(=O)cc(C(F)(F)F)n(C)c2=O)c(F)cc1Cl (stereo not shown) [Compound 66, Isopropyl 3-allyl-2-{{2-chloro-5-[3,6-dihydro-3-methyl-2,6-dioxo-4-(trifluoromethyl)-1(2H)-pyrimidinyl]-4-fluorophenyl}imino}-4-oxo-5-thiazolidineacetate]
8.5: GLXMAW herbicidal rating ([3]; rate 0.0313 kg/ha) | GLXMAW herbicidal rating ([3]; rate 0.0625 kg/ha) | ZEAMX herbicidal rating ([4]; rate 0.0313 kg/ha)
0.0: Preemergence herbicidal rating CASOB ([7]; rate 0.0156 kg/ha) | Preemergence herbicidal rating CASOB ([7]; rate 0.0313 kg/ha) | Preemergence herbicidal rating CASOB ([7]; rate 0.0625 kg/ha) | Preemergence herbicidal rating GALAP ([8]; rate 0.0156 kg/ha) | Preemergence herbicidal rating GALAP ([8]; rate 0.0313 kg/ha) | Preemergence herbicidal rating GALAP ([8]; rate 0.0625 kg/ha) | Preemergence herbicidal rating ECHCG ([9]; rate 0.0156 kg/ha) | Preemergence herbicidal rating ECHCG ([9]; rate 0.0313 kg/ha) | Preemergence herbicidal rating SETVI ([10]; rate 0.0156 kg/ha) | Preemergence herbicidal rating GLXMAW ([11]; rate 0.0156 kg/ha) | Preemergence herbicidal rating GLXMAW ([11]; rate 0.0313 kg/ha) | CYPSE herbicidal effect rating ([12]; 0.0313 kg/ha) | CYPSE herbicidal effect rating ([12]; 0.0625 kg/ha)
4.5: Preemergence herbicidal rating GLXMAW ([11]; rate 0.2500 kg/ha)
5.0: Preemergence herbicidal rating ABUTH ([5]; rate 0.0156 kg/ha)
7.5: Preemergence herbicidal rating SETVI ([10]; rate 0.2500 kg/ha)
7.0: GLXMAW herbicidal rating ([3]; rate 0.0158 kg/ha) | ZEAMX herbicidal rating ([4]; rate 0.0158 kg/ha) | Herbicidal rating ECHORC ([14]; Rate 0.0313 kg/ha) | Herbicidal rating ECHORC ([14]; Rate 0.0625 kg/ha)
0.5: Preemergence herbicidal rating AMBEL ([6]; rate 0.0156 kg/ha) | Preemergence herbicidal rating CASOB ([7]; rate 0.1250 kg/ha) | Preemergence herbicidal rating CASOB ([7]; rate 0.2500 kg/ha) | Preemergence herbicidal rating ECHCG ([9]; rate 0.0625 kg/ha) | Preemergence herbicidal rating ECHCG ([9]; rate 0.1250 kg/ha) | Preemergence herbicidal rating SETVI ([10]; rate 0.0313 kg/ha) | Preemergence herbicidal rating SETVI ([10]; rate 0.0625 kg/ha) | Preemergence herbicidal rating GLXMAW ([11]; rate 0.0625 kg/ha) | Preemergence herbicidal rating GLXMAW ([11]; rate 0.1250 kg/ha)
4.0: CYPSE herbicidal effect rating ([12]; 0.1250 kg/ha) | CYPSE herbicidal effect rating ([12]; 0.2500 kg/ha) | SAGPY herbicidal effect rating ([13]; 0.0625 kg/ha) | SAGPY herbicidal effect rating ([13]; 0.1250 kg/ha) | SAGPY herbicidal effect rating ([13]; 0.2500 kg/ha)
6.0: AMBEL herbicidal rating ([1]; rate 0.0158 kg/ha) | Preemergence herbicidal rating SETVI ([10]; rate 0.1250 kg/ha)
8.0: Preemergence herbicidal rating ABUTH ([5]; rate 0.0313 kg/ha) | Preemergence herbicidal rating GALAP ([8]; rate 0.2500 kg/ha)
9.0: AMBEL herbicidal rating ([1]; rate 0.0313 kg/ha) | AMBEL herbicidal rating ([1]; rate 0.0625 kg/ha) | AMBEL herbicidal rating ([1]; rate 0.1250 kg/ha) | IPOHE herbicidal rating ([2]; rate 0.0158 kg/ha) | IPOHE herbicidal rating ([2]; rate 0.0313 kg/ha) | IPOHE herbicidal rating ([2]; rate 0.0625 kg/ha) | IPOHE herbicidal rating ([2]; rate 0.1250 kg/ha) | GLXMAW herbicidal rating ([3]; rate 0.1250 kg/ha) | ZEAMX herbicidal rating ([4]; rate 0.0625 kg/ha) | ZEAMX herbicidal rating ([4]; rate 0.1250 kg/ha) | Preemergence herbicidal rating ABUTH ([5]; rate 0.0625 kg/ha) | Preemergence herbicidal rating ABUTH ([5]; rate 0.1250 kg/ha) | Preemergence herbicidal rating ABUTH ([5]; rate 0.2500 kg/ha) | Preemergence herbicidal rating ABUTH ([5]; rate 0.5000 kg/ha) | Preemergence herbicidal rating AMBEL ([6]; rate 0.1250 kg/ha) | Preemergence herbicidal rating AMBEL ([6]; rate 0.2500 kg/ha) | Preemergence herbicidal rating AMBEL ([6]; rate 0.5000 kg/ha) | Preemergence herbicidal rating GALAP ([8]; rate 0.5000 kg/ha) | Preemergence herbicidal rating ECHCG ([9]; rate 0.5000 kg/ha) | Preemergence herbicidal rating SETVI ([10]; rate 0.5000 kg/ha) | Preemergence herbicidal rating GLXMAW ([11]; rate 0.5000 kg/ha) | Herbicidal rating ECHORC ([14]; Rate 0.1250 kg/ha) | Herbicidal rating ECHORC ([14]; Rate 0.2500 kg/ha)
3.0: Preemergence herbicidal rating AMBEL ([6]; rate 0.0625 kg/ha) | Preemergence herbicidal rating CASOB ([7]; rate 0.5000 kg/ha) | Preemergence herbicidal rating ECHCG ([9]; rate 0.2500 kg/ha) | SAGPY herbicidal effect rating ([13]; 0.0313 kg/ha)
3.5: Preemergence herbicidal rating GALAP ([8]; rate 0.1250 kg/ha)
1.0: Preemergence herbicidal rating AMBEL ([6]; rate 0.0313 kg/ha)
